This passage reports mutagenic call results from PubChem BioAssay AID1259407 (Chemical Carcinogenesis Research Information System (CCRIS), 2018).

The data set relates to CCRIS mutagenicity, Ames/micronucleus/aberration tests. The data set is described as follows: CCRIS mutagenicity studies.
[1] abbreviates: Test System: AMES SALMONELLA TYPHIMURIUM, Strain/Indicator: TA100, Metabolic Activation: RAT, LIVER, S-9, AROCLOR 1254, Method: STANDARD PLATE.
[2] abbreviates: Test System: AMES SALMONELLA TYPHIMURIUM, Strain/Indicator: TA98, Metabolic Activation: NONE, Method: PREINCUBATION
Setting [3] is: Test System: AMES SALMONELLA TYPHIMURIUM, Strain/Indicator: TA100, Metabolic Activation: NONE, Method: PREINCUBATION

Structures are written as SMILES. Activity calls are given as the source filed them. No rule for the calls is given here.

In the case of `C=C(C)OC(C)=O`, the mutagenic call by setting is: (Test System: AMES SALMONELLA TYPHIMURIUM, Strain/Indicator: TA98, Metabolic Activation: HAMSTER, LIVER, S-9, AROCLOR 1254, Method: STANDARD PLATE) “inactive; negative”; (Test System: AMES SALMONELLA TYPHIMURIUM, Strain/Indicator: TA98, Metabolic Activation: NONE, Method: STANDARD PLATE) “inactive; negative”; (Test System: AMES SALMONELLA TYPHIMURIUM, Strain/Indicator: TA98, Metabolic Activation: RAT, LIVER, S-9, AROCLOR 1254, Method: STANDARD PLATE) “inactive; negative”; (Test System: AMES SALMONELLA TYPHIMURIUM, Strain/Indicator: TA100, Metabolic Activation: HAMSTER, LIVER, S-9, AROCLOR 1254, Method: STANDARD PLATE) “inactive; negative”; (Test System: AMES SALMONELLA TYPHIMURIUM, Strain/Indicator: TA100, Metabolic Activation: NONE, Method: STANDARD PLATE) “inactive; negative”; under setting [1], “inactive; negative”. The mutagenic call (Test System: AMES SALMONELLA TYPHIMURIUM, Strain/Indicator: TA1535, Metabolic Activation: HAMSTER, LIVER, S-9, AROCLOR 1254, Method: STANDARD PLATE) is “inactive; negative”; the mutagenic call (Test System: AMES SALMONELLA TYPHIMURIUM, Strain/Indicator: TA1535, Metabolic Activation: NONE, Method: STANDARD PLATE) was “inactive; negative”; the mutagenic call (Test System: AMES SALMONELLA TYPHIMURIUM, Strain/Indicator: TA1535, Metabolic Activation: RAT, LIVER, S-9, AROCLOR 1254, Method: STANDARD PLATE) is “inactive; negative”; the mutagenic call (Test System: AMES SALMONELLA TYPHIMURIUM, Strain/Indicator: TA1537, Metabolic Activation: HAMSTER, LIVER, S-9, AROCLOR 1254, Method: STANDARD PLATE) was “inactive; negative”; the mutagenic call (Test System: AMES SALMONELLA TYPHIMURIUM, Strain/Indicator: TA1537, Metabolic Activation: NONE, Method: STANDARD PLATE) was “inactive; negative”; the mutagenic call (Test System: AMES SALMONELLA TYPHIMURIUM, Strain/Indicator: TA1537, Metabolic Activation: RAT, LIVER, S-9, AROCLOR 1254, Method: STANDARD PLATE) is “inactive; negative”. For the same compound, the mutagenic call is, setting by setting: (Test System: AMES SALMONELLA TYPHIMURIUM, Strain/Indicator: TA1538, Metabolic Activation: HAMSTER, LIVER, S-9, AROCLOR 1254, Method: STANDARD PLATE) “inactive; negative”; (Test System: AMES SALMONELLA TYPHIMURIUM, Strain/Indicator: TA1538, Metabolic Activation: NONE, Method: STANDARD PLATE) “inactive; negative”; (Test System: AMES SALMONELLA TYPHIMURIUM, Strain/Indicator: TA1538, Metabolic Activation: RAT, LIVER, S-9, AROCLOR 1254, Method: STANDARD PLATE) “inactive; negative”; (Test System: Mouse lymphoma, Strain/Indicator: L5178Y (tk+/tk-), Metabolic Activation: None, Method: Suspension/plate) “active; inconclusive (previously evaluated positive)”; (Test System: Mouse lymphoma, Strain/Indicator: L5178Y (tk+/tk-), Metabolic Activation: Rat, liver, S-9, Aroclor 1254, Method: Suspension/plate) “inactive; negative”.

Regarding `CN1C(CSCC(F)(F)F)Nc2cc(Cl)c(S(N)(=O)=O)cc2S1(=O)=O` (centres undefined), the mutagenic call reads like this: (Test System: AMES SALMONELLA TYPHIMURIUM, Strain/Indicator: TA97, Metabolic Activation: HAMSTER, LIVER, S-9, AROCLOR 1254 (10 OR 30%), Method: PREINCUBATION) “inactive; negative”; (Test System: AMES SALMONELLA TYPHIMURIUM, Strain/Indicator: TA97, Metabolic Activation: NONE, Method: PREINCUBATION) “inactive; negative”; (Test System: AMES SALMONELLA TYPHIMURIUM, Strain/Indicator: TA97, Metabolic Activation: RAT, LIVER, S-9, AROCLOR 1254 (10 OR 30%), Method: PREINCUBATION) “inactive; negative”; (Test System: AMES SALMONELLA TYPHIMURIUM, Strain/Indicator: TA98, Metabolic Activation: HAMSTER, LIVER, S-9, AROCLOR 1254 (10 OR 30%), Method: PREINCUBATION) “inactive; negative”; under setting [2], “inactive; negative”; (Test System: AMES SALMONELLA TYPHIMURIUM, Strain/Indicator: TA98, Metabolic Activation: RAT, LIVER, S-9, AROCLOR 1254 (10 OR 30%), Method: PREINCUBATION) “inactive; negative”. Moreover, the mutagenic call is, setting by setting: (Test System: AMES SALMONELLA TYPHIMURIUM, Strain/Indicator: TA100, Metabolic Activation: HAMSTER, LIVER, S-9, AROCLOR 1254 (10 OR 30%), Method: PREINCUBATION) “inactive; negative”; under setting [3], “inactive; negative”; (Test System: AMES SALMONELLA TYPHIMURIUM, Strain/Indicator: TA100, Metabolic Activation: RAT, LIVER, S-9, AROCLOR 1254 (10 OR 30%), Method: PREINCUBATION) “inactive; negative”; (Test System: AMES SALMONELLA TYPHIMURIUM, Strain/Indicator: TA1535, Metabolic Activation: HAMSTER, LIVER, S-9, AROCLOR 1254 (10 OR 30%), Method: PREINCUBATION) “inactive; negative”; (Test System: AMES SALMONELLA TYPHIMURIUM, Strain/Indicator: TA1535, Metabolic Activation: NONE, Method: PREINCUBATION) “inactive; negative”; (Test System: AMES SALMONELLA TYPHIMURIUM, Strain/Indicator: TA1535, Metabolic Activation: RAT, LIVER, S-9, AROCLOR 1254 (10 OR 30%), Method: PREINCUBATION) “inactive; negative”.

On to `COc1ccc2c(c1O)C(=O)c1ccccc1C2=O`, for which the mutagenic call is, setting by setting: under setting [2], “inactive; negative”; (Test System: AMES SALMONELLA TYPHIMURIUM, Strain/Indicator: TA98, Metabolic Activation: RAT, LIVER, S-9, PCB, Method: PREINCUBATION) “inactive; negative”; under setting [3], “inactive; negative”; (Test System: AMES SALMONELLA TYPHIMURIUM, Strain/Indicator: TA100, Metabolic Activation: RAT, LIVER, S-9, PCB, Method: PREINCUBATION) “inactive; negative”.

For the compound `c1ccc(N=Nc2ccccc2)cc1`, the mutagenic call is “inactive; negative” under setting [3]; “active; positive” (Test System: AMES SALMONELLA TYPHIMURIUM, Strain/Indicator: TA100, Metabolic Activation: RAT, LIVER, MICROSOMES, AROCLOR 1254, Method: PREINCUBATION); “inactive; negative” (Test System: AMES SALMONELLA TYPHIMURIUM, Strain/Indicator: TA100, Metabolic Activation: RAT, LIVER, MICROSOMES, AZOBENZENE, Method: PREINCUBATION); “inactive; negative” (Test System: AMES SALMONELLA TYPHIMURIUM, Strain/Indicator: TA100, Metabolic Activation: RAT, LIVER, MICROSOMES, Method: PREINCUBATION); “active; positive” under setting [1]; “active; positive” (Test System: AMES SALMONELLA TYPHIMURIUM, Strain/Indicator: TA100, Metabolic Activation: RAT, LIVER, S-9, POLYCHLORINATED BIPHENYLS, Method: PREINCUBATION).
